Measured values taken from patent US8927500B2, “Peptidomimetic macrocycles” (Aileron Therapeutics, Inc., priority 2012, dated 2015).
pIC50, pKi: −log10 of the molar value. Where two headings read alike, the source gives them in different places.

Key:
MDM2 = MDM2 (Homo sapiens, UniProt Q00987); experiment: Competitive fluorescence polarization assay for MDM2; assay type: binding; settings: competitive FP assay, MDM2
MDMX = target: T1, MDMX (Homo sapiens, UniProt O15151); experiment: Competitive fluorescence polarization assay for MDMX; assay type: binding; settings: competitive FP assay
T1 sequence (O15151 1-125): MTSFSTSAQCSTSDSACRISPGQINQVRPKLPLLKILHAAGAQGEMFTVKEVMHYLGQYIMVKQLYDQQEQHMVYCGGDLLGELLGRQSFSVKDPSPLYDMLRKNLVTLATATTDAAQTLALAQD

Sequence of MDM2 (Q00987 1-125): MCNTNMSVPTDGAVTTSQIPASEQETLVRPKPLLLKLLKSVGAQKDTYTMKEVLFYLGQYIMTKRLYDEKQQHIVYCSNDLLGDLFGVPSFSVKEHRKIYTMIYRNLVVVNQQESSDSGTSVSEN

| SMILES | pIC50 (MDM2; read-out: IC50 (MDM2)) | pKi (MDM2; read-out: Ki (MDM2)) | pIC50 (MDMX; read-out: IC50 (MDMX)) | pKi (MDMX; read-out: Ki (MDMX)) | pIC50 (MDM2; IC50 (MDM2)) | pKi (MDM2; Ki (MDM2)) | pIC50 (MDMX; IC50 (MDMX)) | pKi (MDMX; Ki (MDMX)) |
| --- | --- | --- | --- | --- | --- | --- | --- | --- |
| CCCC[C@H](NC(=O)[C@H](C)NC(=O)[C@H](C)NC(=O)[C@]1(C)CCCC=CCCCCCC[C@@](C)(NC(=O)[C@H](Cc2ccccc2)NC(=O)[C@@H](NC(=O)[C@H](CC(C)C)NC(C)=O)[C@@H](C)O)C(=O)N[C@@H](C)C(=O)N[C@@H](Cc2ccc(O)cc2)C(=O)N[C@@H](Cc2c[nH]c3ccccc23)C(=O)N[C@@H](C)C(=O)N[C@@H](CCC(N)=O)C(=O)N[C@@H](CC(C)C)C(=O)N1)C(=O)NC(C)(C)C(N)=O (single isomer, unassigned) [compound 398] | 7.00 to 8.00 | > 8.00 | 7.00 to 8.00 | 7.00 to 8.00 |  |  |  |  |
| CCCC[C@H](NC(=O)[C@H](C)NC(=O)[C@H](C)NC(=O)[C@]1(C)CCCC=CCCCCCC[C@@](C)(NC(=O)[C@H](Cc2ccccc2)NC(=O)[C@@H](NC(=O)[C@H](CC(C)C)NC(C)=O)[C@@H](C)O)C(=O)N[C@@H](C)C(=O)N[C@@H](Cc2ccc(O)cc2)C(=O)N[C@@H](Cc2c[nH]c3ccccc23)C(=O)N[C@@H](C)C(=O)N[C@@H](CCC(N)=O)C(=O)N[C@@H](CC(C)C)C(=O)N1)C(=O)N(C)CC(N)=O (single isomer, unassigned) [compound 402] | > 8.00 | > 8.00 | > 8.00 | > 8.00 |  |  |  |  |
| CC(C)C[C@H](NC(=O)CN(C)C)C(=O)N[C@H](C(=O)N[C@@H](Cc1ccccc1)C(=O)N[C@]1(C)CCCCCCC=CCCC[C@@](C)(C(=O)N[C@@H](C)C(=O)N[C@@H](C)C(=O)N[C@@H](C)C(=O)N[C@@H](C)C(=O)N[C@@H](C)C(=O)N[C@H](C)C(N)=O)NC(=O)[C@H](CC(C)C)NC(=O)[C@H](CCC(N)=O)NC(=O)[C@H](C)NC(=O)[C@H](Cc2c[nH]c3ccccc23)NC(=O)[C@H](Cc2ccc(O)cc2)NC(=O)[C@H](CCC(=O)O)NC1=O)[C@@H](C)O (single isomer, unassigned) [compound 439] |  |  |  |  | > 8.00 | > 8.00 | 7.00 to 8.00 | > 8.00 |
| CC[C@H](C)[C@H](NC(=O)[C@H](C)NC(=O)[C@H](C)NC(=O)[C@]1(C)CCCC=CCCCCCC[C@@](C)(NC(=O)[C@H](Cc2ccccc2)NC(=O)[C@@H](NC(=O)[C@H](CC(C)C)NC(=O)CN(C)C)[C@@H](C)O)C(=O)N[C@@H](CCC(=O)O)C(=O)N[C@@H](Cc2ccc(C(=O)O)cc2)C(=O)N[C@@H](Cc2c[nH]c3ccccc23)C(=O)N[C@@H](C)C(=O)N[C@@H](CCC(N)=O)C(=O)N[C@@H](CC2CCC2)C(=O)N1)C(=O)N[C@H](C)C(N)=O (single isomer, unassigned) [compound 441] | > 8.00 | > 8.00 | > 8.00 | > 8.00 |  |  |  |  |
| CC(=O)N[C@@H](CC(C)C)C(=O)N[C@H](C(=O)N[C@@H](Cc1ccccc1)C(=O)N[C@]1(C)CCCCCCC=CCCC[C@@](C)(C(=O)N[C@@H](C)C(=O)N[C@@H](C)C(=O)N[C@@H](C)C(=O)N[C@@H](C)C(=O)N[C@@H](C)C(=O)N[C@H](C)C(=O)O)NC(=O)[C@H](CC(C)C)NC(=O)[C@H](CCC(N)=O)NC(=O)[C@H](C)NC(=O)[C@H](Cc2c[nH]c3ccccc23)NC(=O)[C@H](Cc2ccc(O)cc2)NC(=O)[C@H](CCC(=O)O)NC1=O)[C@@H](C)O (single isomer, unassigned) [compound 551] |  |  |  |  |  | > 8.00 |  | 7.00 to 8.00 |
| CC(=O)N[C@@H](CC(C)C)C(=O)N[C@H](C(=O)N[C@@H](Cc1ccccc1)C(=O)N[C@]1(C)CCCCCCC=CCCC[C@@](C)(C(=O)N[C@@H](C)C(=O)N[C@@H](C)C(=O)N[C@@H](C)C(=O)N[C@@H](C)C(=O)N[C@@H](C)C(=O)N[C@H](C)C(N)=O)NC(=O)[C@H](CC(C)C)NC(=O)[C@H](C)NC(=O)[C@H](C)NC(=O)[C@H](Cc2c[nH]c3ccccc23)NC(=O)[C@H](Cc2ccc(O)cc2)NC(=O)[C@H](C)NC1=O)[C@@H](C)O (single isomer, unassigned) [compound 708] |  | 7.00 to 8.00 |  | 7.00 to 8.00 |  |  |  |  |

Now from value to compound, other results behind:

| pIC50 (MDM2; read-out: IC50 (MDM2)) | pKi (MDM2; read-out: Ki (MDM2)) | pIC50 (MDMX; read-out: IC50 (MDMX)) | pKi (MDMX; read-out: Ki (MDMX)) | SMILES | pIC50 (MDM2; IC50 (MDM2)) | pKi (MDM2; Ki (MDM2)) | pIC50 (MDMX; IC50 (MDMX)) | pKi (MDMX; Ki (MDMX)) |
| --- | --- | --- | --- | --- | --- | --- | --- | --- |
| > 8.00 | > 8.00 | 7.00 to 8.00 | > 8.00 | CCCC[C@H](NC(=O)[C@@H](C)NC(=O)[C@H](C)NC(=O)[C@]1(C)CCCC=CCCCCCC[C@@](C)(NC(=O)[C@H](Cc2ccccc2)NC(=O)[C@@H](NC(=O)[C@H](CC(C)C)NC(C)=O)[C@@H](C)O)C(=O)N[C@@H](C)C(=O)N[C@@H](Cc2ccc(O)cc2)C(=O)N[C@@H](Cc2c[nH]c3ccccc23)C(=O)N[C@@H](C)C(=O)N[C@@H](CCC(N)=O)C(=O)N[C@@H](CC(C)C)C(=O)N1)C(=O)N[C@@H](C)C(N)=O (single isomer, unassigned) [compound 394] |  |  |  |  |
| 7.00 to 8.00 | > 8.00 | 7.00 to 8.00 | > 8.00 | CCCC[C@H](NC(=O)[C@H](C)NC(=O)[C@H](C)NC(=O)[C@]1(C)CCCC=CCCCCCC[C@@](C)(NC(=O)[C@H](Cc2ccccc2)NC(=O)[C@@H](NC(=O)[C@H](CC(C)C)NC(C)=O)[C@@H](C)O)C(=O)N[C@@H](C)C(=O)N[C@@H](Cc2ccc(O)cc2)C(=O)N[C@@H](Cc2c[nH]c3ccccc23)C(=O)N[C@@H](C)C(=O)N[C@@H](CCC(N)=O)C(=O)N[C@@H](CC(C)C)C(=O)N1)C(=O)N[C@@H](C)C(=O)NC(C)(C)C(N)=O (single isomer, unassigned) [compound 404] |  |  |  |  |
| 7.00 to 8.00 | > 8.00 | 7.00 to 8.00 | 7.00 to 8.00 | CCCC[C@H](NC(=O)[C@H](C)NC(=O)[C@H](C)NC(=O)[C@]1(C)CCCC=CCCCCCC[C@@](C)(NC(=O)[C@H](Cc2ccccc2)NC(=O)[C@@H](NC(=O)[C@H](CC(C)C)NC(C)=O)[C@@H](C)O)C(=O)N[C@@H](C)C(=O)N[C@@H](Cc2ccc(O)cc2)C(=O)N[C@@H](Cc2c[nH]c3ccccc23)C(=O)N[C@@H](C)C(=O)N[C@@H](CCC(N)=O)C(=O)N[C@@H](CC(C)C)C(=O)N1)C(=O)N[C@@H](C)C(=O)N[C@H](C)C(N)=O (single isomer, unassigned) [compound 408] |  |  |  |  |
| > 8.00 | > 8.00 | > 8.00 | > 8.00 | CCCC[C@H](NC(=O)[C@H](C)NC(=O)[C@H](C)NC(=O)[C@]1(C)CCCC=CCCCCCC[C@@](C)(NC(=O)[C@H](Cc2ccccc2)NC(=O)[C@@H](NC(=O)[C@H](CC(C)C)NC(C)=O)[C@@H](C)O)C(=O)N[C@@H](C)C(=O)N[C@@H](Cc2ccc(O)cc2)C(=O)N[C@@H](Cc2c[nH]c3ccccc23)C(=O)N[C@@H](C)C(=O)N[C@@H](CCC(N)=O)C(=O)N[C@@H](CC(C)C)C(=O)N1)C(=O)N[C@@H](C)C(=O)N(C)CC(N)=O (single isomer, unassigned) [compound 410] |  |  |  |  |
| > 8.00 | > 8.00 | > 8.00 | > 8.00 | CCCC[C@H](NC(=O)[C@H](C)NC(=O)[C@H](C)NC(=O)[C@]1(C)CCCC=CCCCCCC[C@@](C)(NC(=O)[C@H](Cc2ccccc2)NC(=O)[C@@H](NC(=O)[C@H](CC(C)C)NC(C)=O)[C@@H](C)O)C(=O)N[C@@H](C)C(=O)N[C@@H](Cc2ccc(O)cc2)C(=O)N[C@@H](Cc2c[nH]c3ccccc23)C(=O)N[C@@H](C)C(=O)N[C@@H](CCC(N)=O)C(=O)N[C@@H](CC(C)C)C(=O)N1)C(=O)N[C@@H](C)C(=O)O (single isomer, unassigned) [compound 421] |  |  |  |  |
| 7.00 to 8.00 | > 8.00 | 7.00 to 8.00 | 7.00 to 8.00 | CCCC[C@H](NC(=O)[C@H](C)NC(=O)[C@H](C)NC(=O)[C@]1(C)CCCC=CCCCCCC[C@@](C)(NC(=O)[C@H](Cc2ccccc2)NC(=O)[C@@H](NC(=O)[C@H](CC(C)C)NC(C)=O)[C@@H](C)O)C(=O)N[C@@H](C)C(=O)N[C@@H](Cc2ccc(O)cc2)C(=O)N[C@@H](Cc2c[nH]c3ccccc23)C(=O)N[C@@H](C)C(=O)N[C@@H](CCC(N)=O)C(=O)N[C@@H](CC(C)C)C(=O)N1)C(=O)N[C@@H](C)C(=O)NCCC (single isomer, unassigned) [compound 423] |  |  |  |  |
| 7.00 to 8.00 | 7.00 to 8.00 | 7.00 to 8.00 | 7.00 to 8.00 | CCCC[C@H](NC(=O)[C@H](C)NC(=O)[C@H](C)NC(=O)[C@]1(C)CCCC=CCCCCCC[C@@](C)(NC(=O)[C@H](Cc2ccccc2)NC(=O)[C@@H](NC(=O)[C@H](CC(C)C)NC(C)=O)[C@@H](C)O)C(=O)N[C@@H](C)C(=O)N[C@@H](Cc2ccc(O)cc2)C(=O)N[C@@H](Cc2c[nH]c3ccccc23)C(=O)N[C@@H](C)C(=O)N[C@@H](CCC(N)=O)C(=O)N[C@@H](CC(C)C)C(=O)N1)C(=O)N[C@@H](C)C(=O)NCCC(C)(C)C (single isomer, unassigned) [compound 425] |  |  |  |  |
| 6.00 to 7.00 | 7.00 to 8.00 | 6.00 to 7.00 | 7.00 to 8.00 | CCCCCCNC(=O)[C@H](C)NC(=O)[C@H](CCCC)NC(=O)[C@H](C)NC(=O)[C@H](C)NC(=O)[C@]1(C)CCCC=CCCCCCC[C@@](C)(NC(=O)[C@H](Cc2ccccc2)NC(=O)[C@@H](NC(=O)[C@H](CC(C)C)NC(C)=O)[C@@H](C)O)C(=O)N[C@@H](C)C(=O)N[C@@H](Cc2ccc(O)cc2)C(=O)N[C@@H](Cc2c[nH]c3ccccc23)C(=O)N[C@@H](C)C(=O)N[C@@H](CCC(N)=O)C(=O)N[C@@H](CC(C)C)C(=O)N1 (single isomer, unassigned) [compound 427] |  |  |  |  |
| 7.00 to 8.00 | > 8.00 | 7.00 to 8.00 | 7.00 to 8.00 | CCCC[C@H](NC(=O)[C@H](C)NC(=O)[C@H](C)NC(=O)[C@]1(C)CCCC=CCCCCCC[C@@](C)(NC(=O)[C@H](Cc2ccccc2)NC(=O)[C@@H](NC(=O)[C@H](CC(C)C)NC(=O)CN(C)C)[C@@H](C)O)C(=O)N[C@@H](C)C(=O)N[C@@H](Cc2ccc(O)cc2)C(=O)N[C@@H](Cc2c[nH]c3ccccc23)C(=O)N[C@@H](C)C(=O)N[C@@H](CCC(N)=O)C(=O)N[C@@H](CC(C)C)C(=O)N1)C(=O)N[C@@H](C)C(N)=O (single isomer, unassigned) [compound 443] |  |  |  |  |
